Among the test systems are MDA-MB-231 breast; BT-549 breast; MCF7 breast; T-47D breast; PC-3 prostate.
What all share (test): growth of human tumour cells (NCI), 48 h

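How tested: cells in 96-well plates exposed to compound for 48 hours at five concentrations. The concentration for 50% growth inhibition is given as GI50. TGI: total growth inhibition.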 Bounds are passed on as bounds.

`CCCN1C(=O)N(CCC)C2C1NC(=S)N2/N=C/C=C/c1ccccc1OC` (centres undefined): the GI50 in the experiment on MDA-MB-231 breast was 2.16 µM; with BT-549 breast, 2.77 µM; in the experiment on MCF7 breast, 0.39 µM; with T-47D breast it was 0.376 µM; in the experiment with PC-3 prostate, 0.424 µM. Moreover, the TGI in the experiment on MDA-MB-231 breast is 22.5 µM; in the experiment on BT-549 breast it was 32.9 µM; with MCF7 breast, over 100 µM; with T-47D breast, 37 µM; in the experiment on PC-3 prostate, over 100 µM.
For `COc1ccc(Nc2nnc(-c3cc(O)ccc3O)s2)cc1`, the GI50 with MDA-MB-231 breast is 9.65 µM; in the experiment on BT-549 breast it was 14.9 µM; in the experiment on MCF7 breast, 11.4 µM; in the experiment with PC-3 prostate, 34.4 µM. In addition, the TGI was 31.1 µM in the experiment on MDA-MB-231 breast, 43.6 µM in the experiment with BT-549 breast, 35.4 µM in the experiment with MCF7 breast and over 50 µM in the experiment with PC-3 prostate.
With `COc1cc(-c2cc(-c3cc4c([nH]c5ccccc54)c(-c4cc(OC)c(OC)c(OC)c4)n3)cc(-c3ccccc3)n2)cc(OC)c1OC`, the GI50 with MDA-MB-231 breast was 3.59 µM; with BT-549 breast, 6.74 µM; in the experiment with MCF7 breast, 3.56 µM; in the experiment on T-47D breast it was 2.8 µM; in the experiment on PC-3 prostate it was 3.59 µM. The TGI was over 100 µM in the experiment with MDA-MB-231 breast; 91.2 µM in the experiment on BT-549 breast; 20.8 µM in the experiment with MCF7 breast; 35.4 µM in the experiment on T-47D breast; 32.3 µM in the experiment with PC-3 prostate.
For the molecule `O=C(CSc1nc2ccccc2nc1-c1ccccc1)Nc1ccc(F)cc1`, the GI50 with MDA-MB-231 breast is 34.3 µM; with BT-549 breast, 24.6 µM; with MCF7 breast, 57.2 µM; in the experiment with T-47D breast, 19.2 µM; with PC-3 prostate, 38.9 µM. Besides, the TGI was over 100 µM in the experiment on MDA-MB-231 breast; 66.5 µM in the experiment on BT-549 breast; over 100 µM in the experiment with MCF7 breast; 99.4 µM in the experiment on T-47D breast; over 100 µM with PC-3 prostate.
With `COc1c(OC[C@H](O)CN2CCOCC2)ccc2c3n(c(=NC(=O)c4cccnc4C)nc12)CCN3`, the GI50 in the experiment with MDA-MB-231 breast was over 50 µM; in the experiment on BT-549 breast, 0.365 µM; in the experiment on MCF7 breast, 0.0751 µM; in the experiment on T-47D breast, 0.0315 µM; in the experiment on PC-3 prostate, 0.326 µM. The TGI is over 50 µM in the experiment with MDA-MB-231 breast; 46.6 µM with BT-549 breast; over 50 µM with MCF7 breast; 0.361 µM in the experiment with T-47D breast; over 50 µM in the experiment on PC-3 prostate.
As to `COc1ccc(-c2nn(-c3ccc(NC(=O)c4ccc(Cl)c(Cl)c4)cc3)cc2-c2ccncc2)cc1Cl`, the GI50 in the experiment on MDA-MB-231 breast was 0.993 µM; in the experiment on BT-549 breast it was 3.23 µM; in the experiment on MCF7 breast it was 2.97 µM; in the experiment with T-47D breast it was over 50 µM; in the experiment on PC-3 prostate it was 2.42 µM. Moreover, the TGI with MDA-MB-231 breast was 2.96 µM; in the experiment on BT-549 breast, over 50 µM; with MCF7 breast it was over 50 µM; in the experiment on T-47D breast it was over 50 µM; in the experiment with PC-3 prostate it was over 50 µM.
Turning to `O=C1/C(=C/c2cccc(Cl)c2Cl)N=C(c2ccccc2)N1C1CC1`, the GI50 with MDA-MB-231 breast is 8.05 µM; with BT-549 breast, 9.84 µM; in the experiment on MCF7 breast, 7.98 µM; in the experiment on PC-3 prostate, 8.85 µM. In addition, the TGI in the experiment on MDA-MB-231 breast worked out at 18.3 µM; in the experiment on BT-549 breast, 24.1 µM; in the experiment on MCF7 breast it was 19.2 µM; with PC-3 prostate, 17.2 µM.
`COc1cc2c3c(n(C)c(=O)c2cc1OC)-c1cc2c(cc1/C3=C\CN)OCO2`: the GI50 with MDA-MB-231 breast is 5.8 µM; in the experiment on MCF7 breast, 0.236 µM; in the experiment on T-47D breast, 0.0176 µM; in the experiment with PC-3 prostate, 7.03 µM. Moreover, the TGI in the experiment with MDA-MB-231 breast was over 35.4 µM; with BT-549 breast it was over 100 µM; with MCF7 breast, over 31.6 µM; with T-47D breast, 0.639 µM; in the experiment with PC-3 prostate it was over 100 µM.
Turning to `C[C@@H]1CC[C@@H]2[C@@H]1[C@H](OC(=O)/C=C/c1ccccc1)[C@]1(C3CCCCC3)C[C@@H](OC(=O)CO)[C@@]2(C)O1`, the GI50 in the experiment with MDA-MB-231 breast is 2.47 µM; in the experiment with BT-549 breast it was 0.0337 µM; in the experiment with MCF7 breast, 2.58 µM; in the experiment with T-47D breast, 2.64 µM; in the experiment with PC-3 prostate, 3.04 µM. In addition, the TGI came out at 6.61 µM with MDA-MB-231 breast; 0.729 µM in the experiment on BT-549 breast; 10.8 µM in the experiment with MCF7 breast; 10.7 µM with T-47D breast; 11.3 µM with PC-3 prostate.
Consider `Cn1cc(-c2csc(-c3c[nH]c4ccc(F)cc34)n2)c2cnccc21`, for which the GI50 in the experiment on MDA-MB-231 breast is 1.46 µM; in the experiment with BT-549 breast, 1.63 µM; with PC-3 prostate it was 1.69 µM. Besides, the TGI is 2.93 µM in the experiment on MDA-MB-231 breast, 3.06 µM with BT-549 breast and 3.61 µM in the experiment on PC-3 prostate.
As for `[Cl][Hg][c]1cc[c]([Hg][Cl])o1`, the GI50 was 1.9 µM with MDA-MB-231 breast; 1.99 µM with BT-549 breast; 0.529 µM in the experiment with MCF7 breast; 1.18 µM with T-47D breast; 6.83 µM in the experiment with PC-3 prostate. Besides, the TGI with MDA-MB-231 breast was found to be 5.09 µM; with BT-549 breast, 8.67 µM; with MCF7 breast it was 8.84 µM; with T-47D breast it was 3.66 µM; in the experiment on PC-3 prostate it was 28.5 µM.
In the case of `Cc1ncc(C(=O)Nc2ccc(CN3CCN(C)CC3)c(C(F)(F)F)c2)cc1C#Cc1cnc(N)c2ccncc12`, the GI50 with MDA-MB-231 breast is 0.526 µM; with BT-549 breast, 2.85 µM; in the experiment with MCF7 breast it was 1.35 µM; in the experiment with T-47D breast, 1.91 µM; in the experiment with PC-3 prostate, 2.41 µM. For the same molecule, the TGI in the experiment on MDA-MB-231 breast came to 2.02 µM; in the experiment on BT-549 breast, 8.33 µM; in the experiment with MCF7 breast, 2.9 µM; in the experiment on T-47D breast it was 5.88 µM; with PC-3 prostate it was 6.76 µM.
On to `Cc1nn(-c2ccc(Cl)cc2)c2nc3c(nc12)C(=O)c1ccccc1-3`, for which the GI50 in the experiment with MDA-MB-231 breast is 82.7 µM; in the experiment with BT-549 breast, over 100 µM; with MCF7 breast, 51.9 µM; in the experiment with T-47D breast, 17.4 µM. Further, the TGI in the experiment on MDA-MB-231 breast is over 100 µM; in the experiment on BT-549 breast, over 100 µM; with MCF7 breast, over 100 µM; in the experiment with T-47D breast, 65.6 µM.
`C=CCCCCOc1ccccc1-c1cnc(OCCCCC=C)n1C`: the GI50 in the experiment with MDA-MB-231 breast was 5.19 µM; in the experiment on BT-549 breast it was 4.15 µM; in the experiment with MCF7 breast, 2.89 µM; in the experiment with T-47D breast, 3.53 µM; with PC-3 prostate, 5.38 µM. The TGI in the experiment with MDA-MB-231 breast turned out to be 20.3 µM; in the experiment with BT-549 breast, 18.7 µM; in the experiment on MCF7 breast, 11.6 µM; in the experiment with T-47D breast it was 29.5 µM; in the experiment with PC-3 prostate, 28.9 µM.

For the origin of these results see PubChem BioAssay (NCI).
